Results: patent US7393637B2, “Methods for detecting cancer and monitoring cancer progression” (University of Manitoba, priority 2003, dated 2008)

Legend:
Type in all cases: cell-based, human
[1] = system: BNIP3; assay: Antisense experiment: BNIP3 expression in U87 cells under hypoxia (Western blot); conditions: hypoxia 72 hrs
Procedure: U251 cells were lysed for total protein or nuclear proteins as previously published (5). The lysates ([…]) were separated by SDS-PAGE and transferred to nitrocellulose membranes. Membranes were blocked in 5% skim milk and western blotted with monoclonal antibodies against BNIP3 (1:1000) (5), pro-caspase 8 antibodies (1:1000, Upstate Biotech.), HDAC1 antibodies (1:1000, Upstate Biotech),) or β-actin (1:50, Sigma). The western blots were visualized with chemiluminescence (NEN-Dupont).
Antisense oligonucleotide (5′-[…]-3′ (SEQ ID NO:13)) (Sigma Genesys, Oakville, ON) and sense oligonucleotide (5′-[…]-3′ (SEQ ID NO:14)) were complimentary to bases −1 to +19 of the human Bnip3 gene. Random sequence oligonucleotide (5′-GCAGTCAGCGACGTCGMGC-3′ (SEQ ID NO:15)) contained the same bases in a scrambled sequence. Oligonucleotides were phosphorothioate-modified to prevent degradation. Oligonucleotides were diluted in Opti-MEM (Gibco BRL), mixed with oligofectamine (Invitrogen) and incubated with U87 cells for 4 hours then hypoxic media was added and cells were further incubated under hypoxia for 72 hours. Cell death was determined via acridine orange staining or cells were lysed and protein extracts were analyzed for BNIP3 expression as described above.

[2] = system: U87 cells; assay: Antisense experiment: hypoxia-induced cell death in U87 cells (acridine orange staining); conditions: hypoxia 72 hours
Procedure: U251 and U87 cells were plated on 100 mm plates and grown to approximately 80% confluence, then incubated in hypoxic conditions for a time course of 0, 24, 48, 72 and 96 hours. Following incubation under hypoxia, the cells were trypsinized from the plates and centrifuged to collect a cell pellet. Cells were resuspended in 100 μl of media and 4 μl of acridine orange (100 μg/ml) and ethidium bromide (100 μg/ml) were added. A 10 μl aliquot was removed, placed on a microscope slide and a coverslip was applied. Using a fluorescein filter, the percentage of dead cells was determined by counting the number of DNA condensation nuclei. At least 200 cells were counted per sample as previously described (5).
Antisense oligonucleotide (5′-[…]-3′ (SEQ ID NO:13)) (Sigma Genesys, Oakville, ON) and sense oligonucleotide (5′-[…]-3′ (SEQ ID NO:14)) were complimentary to bases −1 to +19 of the human Bnip3 gene. Random sequence oligonucleotide (5′-GCAGTCAGCGACGTCGMGC-3′ (SEQ ID NO:15)) contained the same bases in a scrambled sequence. Oligonucleotides were phosphorothioate-modified to prevent degradation. […] Cell death was determined via acridine orange staining or cells were lysed and protein extracts were analyzed for BNIP3 expression as described above.

[3] = system: glioblastoma cell lines U87 and U251; assay: Cell death after transfection of glioblastoma cell lines (chromatin condensation); conditions: U87 and U251 cells transfected, normoxia
Procedure: (§1) Human glioblastoma cell lines U251 and U87 (obtained from Dr. V. W. Yong, University of Calgary and Dr. C. Hao, University of Alberta, respectively) were cultured in Dulbecco's modified essential medium (DMEM), supplemented with 10% fetal bovine serum, 2 mM L-glutamine, 1 mM MEM sodium pyruvate, 0.3% glucose and 100 units/mI penicillin/streptomycin. The cell lines were grown in a humidified incubator in the presence of 5% CO2 at 37° C. Cells were maintained under hypoxic conditions (less than 1% oxygen) at 37° C. within a hypoxic chamber (Forma Scientific) filled with 5% CO2 balanced with N2. Transfection experiments were carried out with the U87 and U251 cell lines. The cells were plated 48 hours prior to transfection to achieve approximately 40% confluence. The U87 cell line was transfected using Geneporter™ transfection reagent (GTS) and the U251 cell line using Effectene™ transfection reagent (Qiagen) as per the manufacturer's instructions.
After transfection of U87 and U251 cell lines with 2 μg of pCDNA3, pCDNA3-BNIP3, pCDNA3-BNIP3ΔTM, or pCDNA3-356delA BNIP3, the cells were incubated for 24 and 48 hours, then trypsinized and centrifuged and then resuspended in 2 ml of media. A 200 μl aliquot was placed in a ThermoShandon cytospin at 1000 RPM for 5 minutes with medium-low acceleration. The slides obtained from the cytospin were immediately fixed with 3.7% formaldelyde in 1×PBS at RT for one hour. Following three washes with 1' PBS (0.1% NP40), slides were incubated with primary BNIP3 antibody (1:700 dilution in […], 1×PBS, 0.1% NP40) for 1 hour at RT. The slides were then washed three times in PBS (0.1% NP40) and incubated with goat anti-rabbit fluorescein isothiocyanate (FITC)-conjugated secondary antibody (Sigma) for 1 hour. […] 200 or more cells were counted per sample to assess DNA condensation. Fluorescence was visualized and captured using an Olympus BX51 fluorescent microscope with a Photometrics Cool Snap CF camera and an Olympus IX70 inverted confocal laser microscope using Fluoview 2.0 software.

[4] = system: U251 cells; assay: Determination of mitochondrial membrane potential (TMRM staining) in transfected U251 cells; conditions: U251 cells co-transfected with GFP
Procedure: U251 cells were grown in chamber slides and were co-transfected with pEGFP N1 (Clontech) and pCDNA3, pCDNA3-BNIP3, pCDNA3-BNIP3ΔTM, and pCDNA3-356delA BNIP3 using Geneporter™ transfection reagent (GTS) as per the manufacturer's instructions. After 16 h of incubation, the slides were washed twice with 1×Hepes-buffered saline solution (HBSS) and tetramethylrohdamine (TMRM; Molecular Probes) was added to the slides at […] final concentration and incubated in the dark at RT for 10 min. The slides were then viewed on an Olympus IX70 inverted confocal laser microscope using Fluoview 2.0 software.

[5] = system: U251 cells; assay: Hypoxia-induced cell death in transfected U251 cells (β-galactosidase viability assay)
Procedure: as §1
U87 and U251 cells were co-transfected in 100 mm culture plates with 2 μg of pcDNA3, pcDNA3-BNIP3, pcDNA3-BNIP3ΔTM, pcDNA3-356delA BNIP3 plasmid DNA and 0.5 μg of β-galactosidase reporter plasmid DNA. […] The percentage of dead cells was calculated by assessing the number of rounded, condensed, blue-staining cells in the total population of flat, blue-staining cells. At least 200 cells were counted for each experiment.

Molecule: 5′-GCGCTCCGTTCTGCGACATG-3′ (SEQ ID NO:13) (listed as DNA, chemistry not given here) [antisense oligonucleotides against BNIP3, antisense oligonucleotide to bases −1 to +19 of the human Bnip3 gene]
- BNIP3 expression [1]: effectively blocks BNIP3 expression
- hypoxia-induced cell death [2]: inhibited hypoxia-induced cell death

Molecule: 235—236insA BNIP3: truncated BNIP3, frame shift in the PEST domain by insertion of A at nucleotide 236 (SEQ ID NO:5, protein SEQ ID NO:6)
- induction of cell death [3]: failed to induce cell death

Molecule: wt BNIP3: wild-type Bcl-2 Nineteen Kilodalton Interacting Protein 3 (SEQ ID NO:2), expressed from transfected cDNA
- TMRM staining (mitochondrial membrane potential, Δψm) [4]: TMRM staining decreased
- induction of cell death [3]: inducing cell death

B1: 356delA BNIP3: truncated BNIP3, frame shift in the CD domain by deletion of A at nucleotide 356 (SEQ ID NO:3, protein SEQ ID NO:4) (protein, listed as Homo sapiens)
chain: MSQNGAPGMQEESLQGSWVELHFSNNGNGGSVPASVSIYNGDMEKILLDAQHESGRSSSKSSHCDSPPRSQTPQDTNRASETDTHSIGEKNSSQSEEDDIERRKEVESILKKNSDWIWVGQVGRKIFPPRSSSLNTRSARPPSA
- TMRM staining (mitochondrial membrane potential, Δψm) [4]: failed to change TMRM fluorescence
- induction of cell death [3]: fails to induce cell death
- cell death ([5]; U251 cells transfected with cDNA, hypoxic conditions 72 hours, vector alone 40%, normoxia 10%): 20%
- reduction of cell death versus vector alone ([5]; U251 cells, hypoxic conditions): 50%
